Data set [1] deals with T1, CB1R–5HT2AR heteromer (Homo sapiens, UniProt P28223).
T1 construct: expressed in transfected cells; host or cells: HEK-293T / HEK-293
In words: cAMP production (HTRF), decrease in FK-induced cAMP. In kind it is cell-based. The settings on record: for FK-induced cAMP production after agonist: agonist 100 nM, all groups. As to the method: Sequences encoding YFP Venus protein amino acid residues 1–155 and 156–238 were subcloned in the pcDNA3.1 vector to obtain the YFP Venus hemitruncated proteins. The human cDNAs for 5HT2AR and CB1R, cloned into the pcDNA3.1, were amplified and subcloned as described[18] to give 5HT2AR-cYFP and CB1R-nYFP. Human embryonic kidney (HEK-293T) cells obtained from ATCC were grown in Dulbecco’s modified Eagle’s medium (DMEM) (Gibco) supplemented with 2 mM L-glutamine, 100 μg/mL sodium pyruvate, 100 U/mL penicillin/streptomycin, MEM nonessential amino acid solution (1/100), and 5% (v/v) heat-inactivated fetal bovine serum (FBS) (all supplements from Invitrogen, Paisley, Scotland, UK). Cells were maintained at 37 °C in an atmosphere of 5% CO2. HEK-293T cells were transfected with the corresponding fusion protein cDNA by the polyethylenimine (Sigma) method, as described before.[18]
For cAMP production, homogeneous time-resolved fluorescence energy transfer (HTRF) assays were performed as previously described.[18] […] Fluorescence at 665 nm was analyzed on a PHERAstar Flagship microplate reader equipped with an HTRF optical module (BMG Lab technologies, Offenburg, Germany).
(In general: Cyclic AMP is a second messenger, typically raised through Gs and lowered through Gi signalling.)

For data set [2], the target named is T1, CB1R–5HT2AR heteromer. The experiment in a line: ERK-1/2 phosphorylation assay (α-screen). The format is cell-based.
Protocol: Phosphorylation was determined in white ProxiPlate 384-well microplates (PerkinElmer Life Sciences) by the α-screen bead-based technology using the amplified luminescent proximity homogeneous assay kit (PerkinElmer Life Sciences) and using the Enspire multimode plate reader (PerkinElmer Life Sciences). Phosphorylation is expressed in arbitrary units, ALPHAcounts, as measured by light emission at 520–620 nm of the acceptor beads.
The test system of data set [3] is mice. In words: Hot-plate test (THC-induced analgesia). The conditions noted are these: mouse; THC 10 mg/kg IP.
Data set [4] concerns mice. In words: Novel object recognition test (THC memory impairment). The format is in vivo. The settings on record: mouse; THC 3 mg/kg IP. As to the method:
On day 1 (Habituation), mice were habituated for 9 min to the V-maze in which the task was performed. The following day (Training), mice were placed in the V-maze for 9 min, two identical objects were presented and the time that the mice spent exploring each object was recorded. Mice were again placed in the maze 24 h later for 9 min (Test), one of the familiar objects was replaced with a novel object and the total time spent exploring each of the two objects (novel and familiar) was recorded. Object exploration was defined as the orientation of the nose to the object at less than 2 cm. A discrimination index was calculated as the difference between the time spent exploring the novel or familiar object divided by the total time exploring the two objects. A higher discrimination index is considered to reflect greater memory retention for the familiar object.
Thirty min after peptide administration, mice received an IP injection of vehicle (5% v/v of ethanol, 5% v/v of Cremophor-EL, and 90% v/v saline) or 3 mg/kg of THC dissolved in vehicle.

Data set [5] deals with bEnd.3 brain endothelial cells. The conditions noted are these: 5(6)-carboxyfluorescein-labeled peptides; bEnd.3 cells; fluorescence in basolateral chamber after 24 h; n = 3–6.
Protocol: bEnd.3 brain endothelial cells (ATCC CRL-2299TM) were grown as a monolayer in DMEM supplemented with 10% FBS and 1% penicillin/streptomycin solution (Gibco, USA). Cells were cultured in a humidified atmosphere of 95% air and 5% CO2 at 37 °C (MCO-18AIC (UV), Sanyo, Japan), with daily medium replacement.
The translocation capabilities of 5(6)-carboxyfluorescein-labeled peptides were determined using a protocol previously described.[30],[31] After the experiment, the integrity of the endothelial barrier was checked by measuring the permeability of a 4 kDa fluorescently labeled dextran (FD4) as previously described.[25] Experiments were carried out on different days using independently grown cell cultures.
Data set [6] deals with mice. In words: Immunogenicity: mice immunization and serum ELISA. The format is in vivo, mouse. The settings on record: CD-1 mice, IV, 5 consecutive days and boost at day 15; 17 at 100 μg/dose, 17-KLH at 30 μg; sera days 0, 9, 19; plates coated with 17-BSA. Here is the method: Experiments were performed at the ICTS “NANBIOSIS” Custom Antibody Service (CAbS, CIBER-BBN, IQAC-CSIC). The immune response to 17 was assessed in outbred Swiss ICR (CD-1) mice strain Hsd:ICR (CD-1) (Envigo RMS, The Netherlands), following the immunization schedule in Figure 7. Animals were housed under standard conditions in the CID-CSIC animal facility. Animal experimental procedures were conducted in accordance with protocols approved by CSIC Committee on Ethics of Animal Experiments and Biosafety, as well as the Spanish National Committee on Ethics and Animal Welfare. Briefly, a first group of 10 female mice received IV doses of 17 (200 μL, 20 mg/kg, PBS + 2% DMSO), a second group of 5 mice received IV doses of 17-KLH conjugate (200 μL, 30 μg) and a third group of 5 mice received IVdoses of PBS (200 μL, negative control). The 17-KLH conjugate, administered with Freund’s adjuvant, was also used to generate polyclonal antibody (positive control) (data not shown). Serum samples were collected by tail vein bleeds on days 0, 9, and 19. […] The peptide-specific humoral response was determined by indirect ELISA. […] Color development was stopped with 4 N H2SO4 (50 μL/well) after 30 min at r.t., and absorbance read at 450 nm. Titers in a log10 scale were expressed as the reciprocal of the last dilution giving the absorbance recorded in the control wells (serum at day 0) plus 2 SD.

In the next data set the test system is trypsin. The conditions noted are these: 24 h vs 0 h, HPLC main peak area, mean ± SEM, n = 2. Here is the method:
Peptide samples, incubated with trypsin, were collected and analyzed as before.[60] For human serum digestion, peptide [1000 μM, 2% dimethyl sulfoxide (DMSO) in filtered H2O] was added to human serum (Sigma, St Louis, Missouri) in a 1:1 ratio and incubated at 37 °C with gentle shaking. At 0 min and 24 h, aliquots were taken and proteolysis was stopped with CH3CN (80% in filtered H2O), chilled at 0 °C for 15 min to precipitate serum proteins, and centrifuged at 13,000 rpm at 4 °C for 10 min. The supernatant was collected and analyzed by analytical RP-HPLC and LC–MS as described before,[60] with a 0–95% linear gradient of CH3CN over 15 min. All experiments are performed in duplicate and data were fitted with GraphPad Prism.

Setting [7] is: RIM 1 μM vs DOI 100 nM, MDL 300 nM vs WIN 100 nM, no peptide.

Square brackets hold non-standard residues; d marks the D form. Ends that are not written are not given here. Peptide text beside a SMILES is read from it.

T1 sequence (P28223 whole entry, one chain of several): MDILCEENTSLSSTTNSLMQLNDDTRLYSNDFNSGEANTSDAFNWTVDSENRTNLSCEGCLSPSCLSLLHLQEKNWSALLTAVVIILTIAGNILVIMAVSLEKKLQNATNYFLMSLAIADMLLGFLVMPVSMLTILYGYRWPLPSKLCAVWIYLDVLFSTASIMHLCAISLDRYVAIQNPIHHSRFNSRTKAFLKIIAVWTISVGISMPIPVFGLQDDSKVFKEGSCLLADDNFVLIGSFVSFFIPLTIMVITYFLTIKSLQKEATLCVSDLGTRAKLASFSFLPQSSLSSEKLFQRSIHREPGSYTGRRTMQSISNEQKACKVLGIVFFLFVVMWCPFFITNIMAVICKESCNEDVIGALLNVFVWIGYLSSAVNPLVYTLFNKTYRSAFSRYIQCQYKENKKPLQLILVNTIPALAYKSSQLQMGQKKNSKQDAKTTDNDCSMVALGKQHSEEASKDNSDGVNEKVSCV

Take `COc1cc(CC(C)N)c(OC)cc1I` (stereo not shown) [DOI, 2,5-dimethoxy-4-iodoamphetamine]: on CB1R–5HT2AR heteromer [1] (0.5 μM FK), the “FK-induced cAMP production after agonist” value was “reduced cAMP production”.

Consider `Cc1c(C(=O)NN2CCCCC2)nn(-c2ccc(Cl)cc2Cl)c1-c1ccc(Cl)cc1` [RIM, rimonabant], for which the “antagonist block of the partner receptor's agonist signal (cross-antagonism, pERK)” value at CB1R–5HT2AR heteromer [2] (setting [7]) is “blocked the decrease in FK-induced cAMP or the increase in pERK triggered by the 5HT2AR agonist DOI”. Moreover, at CB1R–5HT2AR heteromer [1] (setting [7]), the “antagonist block of the partner receptor's agonist signal (cross-antagonism, cAMP)” value is recorded as “blocked the decrease in FK-induced cAMP or the increase in pERK triggered by the 5HT2AR agonist DOI”.

In the case of `CCCCCc1cc(O)c2c(c1)OC(C)(C)[C@@H]1CCC(C)=C[C@@H]21` [THC, Δ^9-tetrahydrocannabinol], the “THC effect in hot-plate test” value in the data set with mice [3] is recorded as “analgesic effects”. The “THC effect in novel object recognition test” value in the data set with mice [4] was “memory impairment”.

For `Cc1c(C(=O)c2cccc3ccccc23)c2cccc3c2n1[C@H](CN1CCOCC1)CO3` [WIN, WIN 55,212-2], on CB1R–5HT2AR heteromer [1] (0.5 μM FK), the “FK-induced cAMP production after agonist” value is “reduced cAMP production”.

In the case of `CC[C@@H](C)[C@@H](NC(=O)CNC(=O)[C@@H](C)NC(=O)[C@H](Cc1c[nH]c2ccccc12)NC(=O)[C@H](CC(C)C)NC(=O)[C@@H](NC(=O)[C@H](Cc1ccc(O)cc1)NC(=O)[C@H](CCSC)NC(=O)[C@H](Cc1ccc(O)cc1)NC(=O)[C@H](C)NC(=O)[C@H](Cc1ccc(O)cc1)NC(=O)[C@@H](N)C(C)C)[C@@H](C)CC)C(=O)N[C@H](CC(C)C)C(=O)N[C@H](CCCCN)C(=O)N[C@H](CCCNC(=N)N)C(=O)N[C@H](Cc1c[nH]c2ccccc12)C(N)=O` [compound 13] (H-VYAYMYILW[dA]G[dI][dL][dK][dR][dW]-NH2), the “translocation across the transwell BBB model” value in data set [5] was “translocated more efficiently than 14 and 16”.

In the case of `CC[C@@H](C)[C@@H](NC(=O)CNC(=O)[C@@H](C)N)C(=O)N[C@H](CC(C)C)C(=O)N[C@H](CCCCN)C(=O)N[C@H](CCCNC(=N)N)C(=O)N[C@H](Cc1c[nH]c2ccccc12)C(=O)N[C@@H](CCCCN)C(=O)N[C@H](C(=O)N[C@@H](CC(C)C)C(=O)N[C@H](C(=O)N[C@@H](CC(C)C)C(=O)N[C@H](C(=O)N[C@@H](CC(C)C)C(=O)N[C@H](C(=O)N[C@H](C(N)=O)C(C)C)C(C)C)[C@@H](C)CC)C(C)C)[C@@H](C)O` [compound 15] (H-[dA]G[dI][dL][dK][dR][dW]KTLVLILVV-NH2), in data set [5], the “translocation across the transwell BBB model” value is “translocated more efficiently than 14 and 16”.

Turning to `CC[C@@H](C)[C@@H](NC(=O)CNC(=O)[C@@H](C)NC(=O)[C@H](NC(=O)[C@@H](Cc1ccc(O)cc1)NC(=O)[C@@H](C)NC(=O)[C@@H](Cc1ccc(O)cc1)NC(=O)[C@@H](CCSC)NC(=O)[C@@H](Cc1ccc(O)cc1)NC(=O)[C@H](NC(=O)[C@@H](CC(C)C)NC(=O)[C@H](N)Cc1c[nH]c2ccccc12)[C@H](C)CC)C(C)C)C(=O)N[C@H](CC(C)C)C(=O)N[C@H](CCCCN)C(=O)N[C@H](CCCNC(=N)N)C(=O)N[C@H](Cc1c[nH]c2ccccc12)C(N)=O` [compound 17] (H-[dW][dL][dI][dY][dM][dY][dA][dY][dV][dA]G[dI][dL][dK][dR][dW]-NH2), in the data set with mice [6], the “immunogenicity: peptide-specific antibody response (ELISA titers)” value is “did not evoke any detectable immune response”.

Consider AGILKRWKTLVLILVV-NH2 [compound 9], for which, in the data set on trypsin, the “proteolytic stability: unaltered peptide remaining after trypsin incubation” value is “poor survival”.

As to “LIKTVFAFCSMLCLLNSTVNPIIYALRGRKKRRQRRR [TM7-Tat, peptide TM7-Tat, used as a negative control]”, the “elimination of bidirectional cross-antagonism (pERK)” value on CB1R–5HT2AR heteromer [2] (DOI 100 nM, WIN 100 nM, MDL 300 nM, RIM 1 μM, % of basal, n = 4–9) is listed as “not observed with TM7-Tat”. At CB1R–5HT2AR heteromer [1] (DOI 100 nM, WIN 100 nM, MDL 300 nM, RIM 1 μM, 0.5 μM FK, n = 3–6), the “elimination of bidirectional cross-antagonism (FK-induced cAMP)” value is reported as “not observed with TM7-Tat”. In addition, the “influence on G protein coupling preference of 5HT2AR” value on CB1R–5HT2AR heteromer [1] (FK-induced cAMP, 0.5 μM FK, WIN 100 nM or DOI 100 nM, transfected HEK-293T cells, n = 3–6) is 5HT2AR remains Gi-coupled in the presence of interfering peptides.

In the case of SKSKSKKTLVLILVV-NH2 [compound 10], in the data set with trypsin, the “proteolytic stability: unaltered peptide remaining after trypsin incubation” value was “poor survival”.

VYAYMYILWAGILKRW-NH2 [compound 5]: the “proteolytic stability: unaltered peptide remaining after trypsin incubation” value with trypsin is reported as “poor survival”.

VYAYMYILWSKSKSK-NH2 [compound 6]: in the data set on trypsin, the “proteolytic stability: unaltered peptide remaining after trypsin incubation” value was “poor survival”.

The values above are taken from PMC8486167, “Orally Active Peptide Vector Allows Using Cannabis to Fight Pain While Avoiding Side Effects” (Journal of Medicinal Chemistry, 2021).
